# Assay results taken from patent US5420348A, “Urea derivatives and salts thereof” (Yamanouchi Pharmaceutical Co., Ltd., priority 1990, dated 1995).
# How the values were obtained:
# serum total cholesterol = assay: Lipid-lowering activity in rats fed a diet containing 1.5% cholesterol and 0.5% bile acid; assay type: in vivo; settings: Rattus norvegicus; male Sprague-Dawley rats, 1.5% cholesterol/0.5% bile acid diet for 7 days, oral once a day during last 5 days, blood 2 hours after last administration; read-out: % Reduction in Serum Total Cholesterol ED50
# Source text: ii) Lipid-lowering activity:
# Two hours after the last administration, blood samples were collected under ether anesthesia for determination of serum total cholesterol level and HDL-cholesterol level.
# [1] = biological target: acyl-CoA cholesterol acyltransferase (ACAT); assay: Inhibitory action against acyl-CoA cholesterol acyltransferase (ACAT) activity in rabbit liver microsome; assay type: biochemical; settings: 36 μM [1-14C]oleoyl CoA, pH 7.4, 37° C., 10 minutes, read-out: ACAT Inhibiting Activity IC50 (50% Inhibition Concentration)
# Method: i) ACAT enzyme inhibiting activity:
# Inhibitory action against acyl-CoA cholesterol acyltransferase (ACAT) activity in rabbit liver microsome
# The rabbit liver microsome was prepared as an enzyme fraction according to the method of Heider (J. G. Heider et al., J. of Lipid Res., Vol. 24, 1127-34 (1983)).
# To the mixture of 0.154M phosphate buffer solution (pH 7.4), 2 mM dithiothreitol, 36 μM bovine serum albumin and 10-100 μg of microsome fraction was added liposome prepared by the method of Suckling (K. E. Suckling et al., FEBS Letters, Vol. 151, No. 111-116 (1983)) so that the proposition of liposome became 20% v/v. To the mixture was added 2% v/v of each concentration of test compound solution in dimethyl sulfoxide and the mixture was heated at 37° C. for 5 minutes. Then 36 μM oleoyl CoA containing 1^14 C-oleoyl CoA was added and the resultant mixture was heated at 37° C. for 10 minutes. The reaction was stopped by adding chloroform/methanol (=2/1). After stirring, cholesterol oleate extracted into the chloroform layer was separated by thin layer chromatography and the radioactivity was determined as ACAT activity.
Structure (SMILES),ED50 (serum total cholesterol),IC50 [1]
"Cc1cc(C)c(NC(=O)N(Cc2cc3ccccc3c3ccccc23)C2CCCCCC2)c(C)c1 [Example 10, 1-Cycloheptyl-1-[(9-phenanthrenyl)methyl]-3-(2,4,6-trimethylphenyl)urea]",1.7 mg/kg,61 nM
"Cc1cc(C)c(NC(=O)N(Cc2ccc3c(c2)Cc2ccccc2-3)C2CCCCCC2)c(C)c1 [Example 1, 1-Cycloheptyl-1-[(2-fluorenyl)methyl]-3-(2,4,6-trimethylphenyl)urea]",3.8 mg/kg,73 nM
